For one data set, the system named is HCT-116. Kind of data set: Cytotoxicity against human HCT-116 cells assessed as inhibition of cell growth incubated for 48 hrs by CCK-8 assay. It is filed as functional, cell-based. The settings on record: HCT-116, 48 h. A general note: Formazan colour is commonly taken as a measure of viable cells.
In a further data set the test system is HT-29. Kind of data set: Cytotoxicity against human HT-29 cells assessed as inhibition of cell growth incubated for 48 hrs by CCK-8 assay. It is filed as functional, cell-based. Particulars: HT-29, 48 h.
Data set [1] is described as follows: Cytotoxicity against human NCM460 cells assessed as inhibition of cell growth incubated for 48 hrs by CCK-8 assay. Type of data set: toxicity, cell-based.

Turning to `COC1=C[C@@H]2[C@@H]3Cc4ccc(OC)c(OC(=O)C5CC5)c4[C@]2(CCN3C)CC1=O`, the IC50 with HCT-116 and with HT-29 was over 50 µM throughout. Further, the IC50 at 48 h in data set [1] is over 50 µM.
Regarding `COC1=C[C@@H]2[C@@H]3Cc4ccc(OC)c(OC(=O)/C=C/c5ccccc5)c4[C@]2(CCN3C)CC1=O`, the IC50 in the data set on HCT-116 and in the data set on HT-29 was over 50 µM in each case. Further, the IC50 at 48 h in data set [1] was over 50 µM.
For the compound `C=CC(=O)NCCC(=O)Oc1c(OC)ccc2c1[C@@]13CCN(C)[C@@H](C2)[C@H]1C=C(OC)C(=O)C3`, the IC50 in the data set on HCT-116 and in the data set with HT-29 was over 50 µM each time. The IC50 at 48 h in data set [1] is over 50 µM.
With `C=CC(=O)NCCCCCCCC(=O)Oc1c(OC)ccc2c1[C@@]13CCN(C)[C@@H](C2)[C@H]1C=C(OC)C(=O)C3`, the IC50 with HCT-116 and in the data set with HT-29 was over 50 µM each time. The IC50 at 48 h in data set [1] was over 50 µM.
Take `COC1=C[C@@H]2[C@@H]3Cc4ccc(OC)c(O)c4[C@]2(CCN3C)CC1=O` [SINOMENINE]: the half-inhibitory concentration (IC50) in the data set with HCT-116 and in the data set with HT-29 was over 50 µM throughout. Besides, the IC50 at 48 h in data set [1] is over 50 µM.
Regarding `C=C(Cl)C(=O)NCCCCCCCC(=O)Oc1c(OC)ccc2c1[C@@]13CCN(C)[C@@H](C2)[C@H]1C=C(OC)C(=O)C3`, the IC50 in the data set with HCT-116 amounted to 19.6 µM; in the data set with HT-29, 17.8 µM. For the same compound, the IC50 at 48 h in data set [1] is over 50 µM.
The like results for `CCCCCCCCCCCC(=O)Oc1c(OC)ccc2c1[C@@]13CCN(C)[C@@H](C2)[C@H]1C=C(OC)C(=O)C3` were, in that order, 5.69 µM, 4 µM and 9.85 µM.
Taken in the same sequence, the figures for `C=C(Cl)C(=O)NCCC(=O)Oc1c(OC)ccc2c1[C@@]13CCN(C)[C@@H](C2)[C@H]1C=C(OC)C(=O)C3` were 4.76 µM, 9.45 µM and 34.5 µM.
Taken in the same sequence, the figures for `C=C(Cl)C(=O)Oc1c(OC)ccc2c1[C@@]13CCN(C)[C@@H](C2)[C@H]1C=C(OC)C(=O)C3` were 12.9 µM, 8.66 µM and 35.2 µM.
On to `COC1=C[C@@H]2[C@@H]3Cc4ccc(OC)c(OC(=O)CCCCCCCNC(=O)/C=C/C(F)(F)F)c4[C@]2(CCN3C)CC1=O`, for which the IC50 in the data set on HCT-116 and with HT-29 was over 50 µM in each case. For the same compound, the IC50 at 48 h in data set [1] is over 50 µM.
`COCC(=O)Oc1c(OC)ccc2c1[C@@]13CCN(C)[C@@H](C2)[C@H]1C=C(OC)C(=O)C3`: the IC50 in the data set on HCT-116 and with HT-29 was over 50 µM throughout. The IC50 at 48 h in data set [1] is over 50 µM.
On to `CCCCCCC(=O)Oc1c(OC)ccc2c1[C@@]13CCN(C)[C@@H](C2)[C@H]1C=C(OC)C(=O)C3`, for which the results for the IC50 with HCT-116 and in the data set on HT-29 were over 50 µM and 31.9 µM, respectively. The IC50 at 48 h in data set [1] was over 50 µM.
Turning to `COC1=C[C@@H]2[C@@H]3Cc4ccc(OC)c(OC(=O)c5ccc(OC)cc5)c4[C@]2(CCN3C)CC1=O`, the IC50 in the data set with HCT-116 and in the data set on HT-29 was over 50 µM throughout. Besides, the IC50 at 48 h in data set [1] is over 50 µM.
Consider `CCCC(=O)Oc1c(OC)ccc2c1[C@@]13CCN(C)[C@@H](C2)[C@H]1C=C(OC)C(=O)C3`, for which the IC50 with HCT-116 and in the data set on HT-29 was over 50 µM throughout. Further, the IC50 at 48 h in data set [1] was over 50 µM.
Regarding `COC1=C[C@@H]2[C@@H]3Cc4ccc(OC)c(OC(=O)c5ccccc5)c4[C@]2(CCN3C)CC1=O`, the IC50 with HCT-116 and in the data set on HT-29 was over 50 µM in each case. Moreover, in data set [1], the IC50 at 48 h was over 50 µM.
Turning to `C=C(C)C(=O)Oc1c(OC)ccc2c1[C@@]13CCN(C)[C@@H](C2)[C@H]1C=C(OC)C(=O)C3`, the IC50 is 61.4 µM in the data set with HCT-116 and over 50 µM in the data set on HT-29. Besides, the IC50 at 48 h in data set [1] is over 50 µM.
With `COC1=C[C@@H]2[C@@H]3Cc4ccc(OC)c(OC(=O)/C=C/C(F)(F)F)c4[C@]2(CCN3C)CC1=O`, the IC50 in the data set on HCT-116 worked out at 6.01 µM; with HT-29, 5.99 µM. In addition, the IC50 at 48 h in data set [1] was 16 µM.
For `COC1=C[C@@H]2[C@@H]3Cc4ccc(OC)c(OC(=O)C(C)C)c4[C@]2(CCN3C)CC1=O`, the IC50 in the data set with HCT-116 and in the data set on HT-29 was over 50 µM throughout. For the same compound, in data set [1], the 50% inhibitory concentration (IC50) at 48 h was over 50 µM.
Take `COC1=C[C@@H]2[C@@H]3Cc4ccc(OC)c(OC(=O)c5ccc(Cl)cc5)c4[C@]2(CCN3C)CC1=O`: the values for the IC50 with HCT-116 and in the data set with HT-29 were over 50 µM and 25.1 µM, respectively. In addition, in data set [1], the IC50 at 48 h was over 50 µM.
On to `COC1=C[C@@H]2[C@@H]3Cc4ccc(OC)c(OC(=O)CCl)c4[C@]2(CCN3C)CC1=O`, for which the IC50 in the data set on HCT-116 was 33.3 µM; in the data set with HT-29 it was over 50 µM. Moreover, the IC50 at 48 h in data set [1] is over 50 µM.
Take `COC1=C[C@@H]2[C@@H]3Cc4ccc(OC)c(OC(=O)CCCCCCCCCCCNC(=O)/C=C/C(F)(F)F)c4[C@]2(CCN3C)CC1=O`: the IC50 in the data set with HCT-116 worked out at 7.84 µM; in the data set on HT-29, 8.71 µM. In addition, in data set [1], the IC50 at 48 h was found to be 22.9 µM.
The like results for `C/C=C/C(=O)Oc1c(OC)ccc2c1[C@@]13CCN(C)[C@@H](C2)[C@H]1C=C(OC)C(=O)C3` were, in that order, over 50 µM, over 50 µM and over 50 µM.
On to `CCO/C=C/C(=O)Oc1c(OC)ccc2c1[C@@]13CCN(C)[C@@H](C2)[C@H]1C=C(OC)C(=O)C3`, for which the IC50 in the data set with HCT-116 and in the data set on HT-29 was over 50 µM in each case. For the same compound, the IC50 at 48 h in data set [1] is over 50 µM.
For `COC1=C[C@@H]2[C@@H]3Cc4ccc(OC)c(OC(=O)CCNC(=O)/C=C/C(F)(F)F)c4[C@]2(CCN3C)CC1=O`, the IC50 with HCT-116 and with HT-29 was over 50 µM in each case. In addition, the half-inhibitory concentration (IC50) at 48 h in data set [1] was over 50 µM.
With `C=CC(=O)Oc1c(OC)ccc2c1[C@@]13CCN(C)[C@@H](C2)[C@H]1C=C(OC)C(=O)C3`, the IC50 with HCT-116 came to 7.04 µM; with HT-29 it was 9.12 µM. Besides, the IC50 at 48 h in data set [1] turned out to be 32.5 µM.
Taken in the same sequence, the figures for `C=CCCC(=O)Oc1c(OC)ccc2c1[C@@]13CCN(C)[C@@H](C2)[C@H]1C=C(OC)C(=O)C3` were over 50 µM, over 50 µM and over 50 µM.
`COC1=C[C@@H]2[C@@H]3Cc4ccc(OC)c(OC(C)=O)c4[C@]2(CCN3C)CC1=O`: the IC50 with HCT-116 and with HT-29 was over 50 µM each time. Besides, the IC50 at 48 h in data set [1] is over 50 µM.
`C=CC(=O)NCCCCCCCCCCCC(=O)Oc1c(OC)ccc2c1[C@@]13CCN(C)[C@@H](C2)[C@H]1C=C(OC)C(=O)C3`: the IC50 came to 20.2 µM in the data set on HCT-116 and 7.14 µM with HT-29. Also, in data set [1], the IC50 at 48 h came out at 33.2 µM.

As a reminder, the IC50 is the concentration that inhibits the measured activity by half.

These data come from ChEMBL document CHEMBL5505993, “Identification of a ferritinophagy inducer via sinomenine modification for the treatment of colorectal cancer” (Eur J Med Chem, 2024).
